Columns and labels:
[1] = In vivo biodistribution in nu/nu mice; conditions: for 225Ac Biodistribution, Blood / 225Ac Biodistribution, Bone / 225Ac Biodistribution, Kidneys / 225Ac Biodistribution, Liver: average; for pattern of distribution: intraperitoneal, approx. 2 μCi, nu/nu mice, period of 5 days
Procedure: Counting was carried out half an hour after sample preparation.

[2] = in vivo; cited from earlier work
[3] = system: antigen negative cell line; assay: In-vitro cell kill (3H-thymidine incorporation), antigen negative cell line; type: cell-based
[4] = system: target cells; assay: Internalization of isotope into target cells; type: cell-based; conditions: in 5 hours
[5] = system: antigen positive cell line; assay: In-vitro cell kill (3H-thymidine incorporation), antigen positive cell line; type: cell-based
[6] = target: T1, antigen excess (HuM195 is anti-CD33) (Homo sapiens, UniProt P20138); assay: Cell-based immunoreactivity study (binding of labeled antibody to antigen excess)
T1 construct: host or cells: unnamed antigen-bearing cells
T1 sequence (P20138 18-364): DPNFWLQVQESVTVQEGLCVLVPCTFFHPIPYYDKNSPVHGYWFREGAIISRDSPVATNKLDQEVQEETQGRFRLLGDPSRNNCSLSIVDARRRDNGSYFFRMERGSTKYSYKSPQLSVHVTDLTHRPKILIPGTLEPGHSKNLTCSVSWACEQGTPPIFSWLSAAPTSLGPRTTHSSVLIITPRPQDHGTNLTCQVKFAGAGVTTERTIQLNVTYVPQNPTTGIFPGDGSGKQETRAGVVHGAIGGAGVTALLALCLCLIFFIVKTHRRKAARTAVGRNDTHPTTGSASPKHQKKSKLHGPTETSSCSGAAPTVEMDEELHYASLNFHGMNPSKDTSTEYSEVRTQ

Molecule	225Ac Biodistribution, Blood ([1]; 1 d) [% dose/g]	225Ac Biodistribution, Blood ([1]; 2 d) [% dose/g]	225Ac Biodistribution, Blood ([1]; 5 d) [% dose/g]	225Ac Biodistribution, Bone ([1]; 1 d) [% dose/g]	225Ac Biodistribution, Bone ([1]; 2 d) [% dose/g]	225Ac Biodistribution, Bone ([1]; 5 d) [% dose/g]	225Ac Biodistribution, Kidneys ([1]; 1 d) [% dose/g]	225Ac Biodistribution, Kidneys ([1]; 2 d) [% dose/g]	225Ac Biodistribution, Kidneys ([1]; 5 d) [% dose/g]	225Ac Biodistribution, Liver ([1]; 1 d) [% dose/g]	225Ac Biodistribution, Liver ([1]; 2 d) [% dose/g]	225Ac Biodistribution, Liver ([1]; 5 d) [% dose/g]	pattern of distribution [1]	excretion [2]	liver uptake [2]	LD50 in a 2-day assay [3]	isotope internalized in the target cells [4]	LD50 in a 2-day assay ([5]; 2-day assay, positive cell line)	LD50 in a 5-day assay ([5]; 5-day assay, specific activity of 0.035 Ci/g, 3H-thymidine incorporation) [nCi/ml]	immunoreactive fraction [6] [%]
CC(=O)[O-].CC(=O)[O-].CC(=O)[O-].[225Ac+3] [^225Ac Acetate, reference compound]	0.1	0.2	0.0	13.3	12.0	17.1	3.8	3.2	2.8	46.6	43.1	68.5	held up in the liver and bone but cleared from blood							
O=P(O)(O)CN(CCN(CP(=O)(O)O)CP(=O)(O)O)CP(=O)(O)O [^225Ac-EDTMP, ethylenediaminetetra-methylenephosphonic acid, metal not drawn]														poor	still substantial					
^225Ac-HuM195-MeO-DOTA	10.1	10.2	4.5	3.8	4.1	5.3	4.6	5.2	4.6	8.8	10.0	20.7	longer blood circulation time and less bone uptake			about 28 nCi/ml	more than 50%	about 1.4 nCi/ml	~0.3	~70
